In patent publication US7122193B1 (priority 1994, dated 2006):

Experiments:
I-A^d class II molecules = I-A^d class II molecules (Mus musculus, UniProt P01921+P04228); assay type: cell-based
I-E^d class II molecules = I-E^d class II molecules (Mus musculus, UniProt P01904+P01915); assay type: cell-based
I-E^d class II molecules, sequence (P01904 26-255 limits assumed): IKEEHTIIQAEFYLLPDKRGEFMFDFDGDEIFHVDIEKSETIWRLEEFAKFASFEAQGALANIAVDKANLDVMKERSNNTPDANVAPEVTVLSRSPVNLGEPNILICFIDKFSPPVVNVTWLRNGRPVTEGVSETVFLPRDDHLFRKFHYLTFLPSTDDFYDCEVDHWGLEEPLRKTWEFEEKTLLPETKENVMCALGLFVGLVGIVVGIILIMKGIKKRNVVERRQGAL
I-E^d class II molecules, sequence (P01915 27-264 limits assumed): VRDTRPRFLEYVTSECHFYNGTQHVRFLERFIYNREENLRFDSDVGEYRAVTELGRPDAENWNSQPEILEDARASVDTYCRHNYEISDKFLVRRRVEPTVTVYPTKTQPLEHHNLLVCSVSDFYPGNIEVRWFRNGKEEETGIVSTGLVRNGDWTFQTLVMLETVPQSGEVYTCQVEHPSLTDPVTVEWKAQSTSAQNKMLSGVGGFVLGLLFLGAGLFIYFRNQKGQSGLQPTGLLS

I-A^d class II molecules, sequence (P04228 24-256 limits assumed): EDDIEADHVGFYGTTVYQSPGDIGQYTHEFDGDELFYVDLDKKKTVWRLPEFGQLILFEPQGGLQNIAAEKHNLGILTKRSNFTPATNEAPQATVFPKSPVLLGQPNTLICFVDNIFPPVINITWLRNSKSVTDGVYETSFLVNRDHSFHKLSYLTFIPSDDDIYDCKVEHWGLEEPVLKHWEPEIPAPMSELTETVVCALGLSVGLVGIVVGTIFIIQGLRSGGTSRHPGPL
I-A^d class II molecules, sequence (P01921 28-265 limits assumed): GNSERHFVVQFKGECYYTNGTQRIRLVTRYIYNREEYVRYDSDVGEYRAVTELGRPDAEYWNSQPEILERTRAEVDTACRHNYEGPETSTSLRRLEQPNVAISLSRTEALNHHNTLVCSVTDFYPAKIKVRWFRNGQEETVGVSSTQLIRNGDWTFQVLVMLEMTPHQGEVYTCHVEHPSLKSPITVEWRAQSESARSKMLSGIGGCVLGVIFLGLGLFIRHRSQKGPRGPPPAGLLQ

CH3CO-(D)Thr-(D)Asp-(D)Lys-(D)Tyr-(D)Thr-(D)Ile-(D)Lys-(D)Trp-(D)Val-(D)Ala-(D)Phe-(D)Leu-(D)Lys-NH2
binding to I-A^d transfected fibroblasts, in words (I-A^d class II molecules): Neither the L- nor the retro-inverso peptides bound
inhibition (of IL-2 production / binding of cI 12–26) (I-E^d class II molecules): up to 56%
